Data published in patent US8962674B2 (Tokyo Institute of Technology, priority 2006, dated 2015).

melting point [°C] | SMILES
245 to 250 | CN(C)c1ccc(/C=C/C(=O)CC(=O)/C=C/c2ccc(N(C)C)cc2[N+](=O)[O-])c([N+](=O)[O-])c1
139 to 150 | O=C(/C=C/c1ccc(O)cc1)CC(=O)/C=C/c1ccccc1N1CCNCC1.O=C(O)C(F)(F)F.O=C(O)C(F)(F)F
193 to 195 | COc1cc(/C=C/C(=O)CC(=O)/C=C/c2ccc(NC(C)=O)cc2)ccc1O [CU003, (1E,6E)-N-{4-[7-(4-hydroxy-3-methoxyphenyl)-3,5-dioxohepta-1,6-dienyl]phenyl}acetamide]
45 to 46 | COc1cc(/C=C/C(=O)CC(=O)/C=C/c2ccc(Oc3ccccc3)cc2)ccc1O [CU004, (1E,6E)-1-(4-hydroxy-3-methoxyphenyl)-7-(4-phenoxyphenyl)hepta-1,6-diene-3,5-dione]
80 to 83 | COc1cc(/C=C/C(=O)CC(=O)/C=C/c2cc(OC)c(OC)c(OC)c2)ccc1O [CU006, (1E,6E)-1-(4-hydroxy-3-methoxyphenyl)-7-(3,4,5-trimethoxyphenyl)hepta-1,6-diene-3,5-dione]
90 to 95 | COc1cc(/C=C/C(=O)CC(=O)/C=C/c2ccc(O)c(Cl)c2)ccc1O [CU007, (1E,6E)-1-(3-chloro-4-hydroxyphenyl)-7-(4-hydroxy-3-methoxyphenyl)hepta-1,6-diene-3,5-dione]
149 to 152 | COc1cc(/C=C/C(=O)CC(=O)/C=C/c2ccc3c(c2)OCO3)ccc1O [CU009, (1E,6E)-1-(benzo[1,3]dioxol-5-yl)-7-(4-hydroxy-3-methoxyphenyl)hepta-1,6-diene-3,5-dione]
147 to 149 | COc1cc(/C=C/C(=O)CC(=O)/C=C/c2ccc(SC)cc2)ccc1O [CU012, (1E,6E)-1-(4-hydroxy-3-methoxyphenyl)-7-(4-methylthiophenyl)hepta-1,6-diene-3,5-dione]
92 to 95 | COc1cc(/C=C/C(=O)C(=Cc2ccncc2)C(C)=O)ccc1O [CU014, (5E)-6-(4-hydroxy-3-methoxyphenyl)-3-(pyridin-4-ylmethylene)hex-5-ene-2,4-dione]
48 to 50 | COc1cc(/C=C/C(=O)CC(=O)/C=C/c2ccco2)ccc1O [CU015, (1E,6E)-1-(furan-2-yl)-7-(4-hydroxy-3-methoxyphenyl)hepta-1,6-diene-3,5-dione]
52 to 54 | COc1cc(/C=C/C(=O)CC(=O)/C=C/c2cccs2)ccc1O [CU016, (1E,6E)-1-(4-hydroxy-3-methoxyphenyl)-7-(thiophen-2-yl)hepta-1,6-diene-3,5-dione]
155 to 159 | COc1cc(/C=C/C(=O)CC(=O)/C=C/c2ccc(OCCCN(C)C)cc2)ccc1O [CU018, (1E,6E)-1-[4-(3-dimethylaminopropoxy)phenyl]-7-(4-hydroxy-3-methoxyphenyl)hepta-1,6-diene-3,5-dione]
59 to 61 | COc1cc(/C=C/C(=O)CC(=O)/C=C/c2ccc(Cl)cc2)ccc1O [CU020, (1E,6E)-1-(4-chlorophenyl)-7-(4-hydroxy-3-methoxyphenyl)hepta-1,6-diene-3,5-dione]
185 to 188 | COc1cc(/C=C/C(=O)CC(=O)/C=C/c2cc(Cl)cc(Cl)c2O)ccc1O [CU021, (1E,6E)-1-(3,5-dichloro-2-hydroxyphenyl)-7-(4-hydroxy-3-methoxyphenyl)hepta-1,6-diene-3,5-dione]
176 to 179 | COc1cc(/C=C/C(=O)CC(=O)/C=C/c2cccnc2)ccc1O [CU024, (1E,6E)-1-(4-hydroxy-3-methoxyphenyl)-7-(pyridin-3-yl)hepta-1,6-diene-3,5-dione]
207 to 210 | COc1ccc(/C=C/C(=O)CC(=O)/C=C/c2ccc(O)cc2)cc1O [CU027, (1E,6E)-1-(3-hydroxy-4-methoxyphenyl)-7-(4-hydroxyphenyl)hepta-1,6-diene-3,5-dione]
197 to 199 | Cc1cc(/C=C/C(=O)CC(=O)/C=C/c2ccc(O)cc2)ccc1O [CU029, (1E,6E)-1-(4-hydroxy-3-methylphenyl)-7-(4-hydroxyphenyl)hepta-1,6-diene-3,5-dione]
186 to 189 | COc1cc(/C=C/C(=O)CC(=O)/C=C/c2ccc(O)c(F)c2)ccc1O [CU032, (1E,6E)-1-(3-fluoro-4-hydroxyphenyl)-7-(4-hydroxy-3-methoxyphenyl)hepta-1,6-diene-3,5-dione]
68 to 75 | COc1cc(/C=C/C(=O)CC(=O)/C=C/c2ccc(N(C)C)c(OC)c2)ccc1O [CU033, (1E,6E)-1-(4-dimethylamino-3-methoxyphenyl)-7-(4-hydroxy-3-methoxyphenyl)hepta-1,6-diene-3,5-dione]
173 to 176 | COc1ccc(/C=C/C(=O)CC(=O)/C=C/c2ccc(O)c(F)c2)cc1O [CU035, (1E,6E)-1-(3-fluoro-4-hydroxyphenyl)-7-(3-hydroxy-4-methoxyphenyl)hepta-1,6-diene-3,5-dione]
65 to 70 | COc1ccc(/C=C/C(=O)CC(=O)/C=C/c2ccc(N(C)C)c(OC)c2)cc1O [CU036, (1E,6E)-1-(4-dimethylamino-3-methoxyphenyl)-7-(3-hydroxy-4-methoxyphenyl)hepta-1,6-diene-3,5-dione]

melting point [°C] | SMILES
240 to 245 | O=C(/C=C/c1ccc(O)cc1)CC(=O)/C=C/c1ccc(O)c([N+](=O)[O-])c1 [CU039, (1E,6E)-1-(4-hydroxy-3-nitrophenyl)-7-(4-hydroxyphenyl)hepta-1,6-diene-3,5-dione]
209 to 213 | COc1cc(/C=C/C(=O)CC(=O)/C=C/c2ccc(O)c([N+](=O)[O-])c2)ccc1O [CU040, (1E,6E)-1-(4-hydroxy-3-methoxyphenyl)-7-(4-hydroxy-3-nitrophenyl)hepta-1,6-diene-3,5-dione]
220 to 224 | COc1ccc(/C=C/C(=O)CC(=O)/C=C/c2ccc(O)c([N+](=O)[O-])c2)cc1O [CU041, (1E,6E)-1-(3-hydroxy-4-methoxyphenyl)-7-(4-hydroxy-3-nitrophenyl)hepta-1,6-diene-3,5-dione]
184 to 190 | O=C(/C=C/c1ccc(O)cc1)CC(=O)/C=C/c1ccc(O)c(Cl)c1 [CU042, (1E,6E)-1-(3-chloro-4-hydroxyphenyl)-7-(4-hydroxyphenyl)hepta-1,6-diene-3,5-dione]
195 to 197 | COc1ccc(/C=C/C(=O)CC(=O)/C=C/c2ccc(O)c(Cl)c2)cc1O [CU044, (1E,6E)-1-(3-chloro-4-hydroxyphenyl)-7-(3-hydroxy-4-methoxyphenyl)hepta-1,6-diene-3,5-dione]
83 to 85 | O=C(/C=C/c1ccc(O)cc1)CC(=O)/C=C/c1ccc(Cl)c(Cl)c1 [CU045, (1E,6E)-1-(3,4-dichlorophenyl)-7-(4-hydroxyphenyl)hepta-1,6-diene-3,5-dione]
70 to 76 | COc1cc(/C=C/C(=O)CC(=O)/C=C/c2ccc(Cl)c(Cl)c2)ccc1O [CU046, (1E,6E)-1-(3,4-dichlorophenyl)-7-(4-hydroxy-3-methoxyphenyl)hepta-1,6-diene-3,5-dione]
84 to 86 | COc1cc(/C=C/C(=O)CC(=O)/C=C/c2ccc(O)cc2)ccc1N(C)C [CU048, (1E,6E)-1-(4-dimethylamino-3-methoxyphenyl)-7-(4-hydroxyphenyl)hepta-1,6-diene-3,5-dione]
196 to 199 | COc1ccc(/C=C/C(=O)CC(=O)/C=C/c2ccc([N+](=O)[O-])c(OC)c2)cc1O [CU049, (1E,6E)-1-(3-hydroxy-4-methoxyphenyl)-7-(3-methoxy-4-nitrophenyl)hepta-1,6-diene-3,5-dione]
190 to 192 | COc1cc(/C=C/C(=O)CC(=O)/C=C/c2ccc(O)cc2)ccc1[N+](=O)[O-] [CU050, (1E,6E)-1-(4-hydroxyphenyl)-7-(3-methoxy-4-nitrophenyl)hepta-1,6-diene-3,5-dione]
157 to 163 | COc1cc(/C=C/C(=O)CC(=O)/C=C/c2ccc([N+](=O)[O-])c(OC)c2)ccc1O [CU051, (1E,6E)-1-(4-hydroxy-3-methoxyphenyl)-7-(3-methoxy-4-nitrophenyl)hepta-1,6-diene-3,5-dione]
215 to 218 | COc1ccc(/C=C/C(=O)CC(=O)/C=C/c2ccc(O)c(C)c2)cc1O [CU052, (1E,6E)-1-(3-hydroxy-4-methoxyphenyl)-7-(4-hydroxy-3-methylphenyl)hepta-1,6-diene-3,5-dione]
132 to 133 | COc1cc(/C=C/C(=O)CC(=O)/C=C/c2ccc(C)c(C)c2)ccc1O [CU057, (1E,6E)-1-(3,4-dimethylphenyl)-7-(4-hydroxy-3-methoxyphenyl)hepta-1,6-diene-3,5-dione]
150 to 154 | COc1ccc(/C=C/C(=O)CC(=O)/C=C/c2ccc(C)c(C)c2)cc1O [CU058, (1E,6E)-1-(3,4-dimethylphenyl)-7-(3-hydroxy-4-methoxyphenyl)hepta-1,6-diene-3,5-dione]
137 to 140 | COc1ccc(/C=C/C(=O)CC(=O)/C=C/c2ccc(OC)c(O)c2)cc1 [CU065, (1E,6E)-1-(3-hydroxy-4-methoxyphenyl)-7-(4-methoxyphenyl)hepta-1,6-diene-3,5-dione]
171 to 178 | COc1ccccc1/C=C/C(=O)CC(=O)/C=C/c1ccc(O)cc1 [CU066, (1E,6E)-1-(4-hydroxyphenyl)-7-(2-methoxyphenyl)hepta-1,6-diene-3,5-dione]
61 to 66 | COc1cc(/C=C/C(=O)CC(=O)/C=C/c2ccccc2OC)ccc1O [CU067, (1E,6E)-1-(4-hydroxy-3-methoxyphenyl)-7-(2-methoxyphenyl)hepta-1,6-diene-3,5-dione]
102 to 108 | COc1ccc(/C=C/C(=O)CC(=O)/C=C/c2ccccc2OC)cc1O [CU068, (1E,6E)-1-(3-hydroxy-4-methoxyphenyl)-7-(2-methoxyphenyl)hepta-1,6-diene-3,5-dione]
70 to 72 | COc1cccc(/C=C/C(=O)CC(=O)/C=C/c2ccc(O)cc2)c1OC [CU069, (1E,6E)-1-(2,3-dimethoxyphenyl)-7-(4-hydroxyphenyl)hepta-1,6-diene-3,5-dione]
57 to 65 | COc1cc(/C=C/C(=O)CC(=O)/C=C/c2cccc(OC)c2OC)ccc1O [CU070, (1E,6E)-1-(2,3-dimethoxyphenyl)-7-(4-hydroxy-3-methoxyphenyl)hepta-1,6-diene-3,5-dione]
